From US6897237B2, “MMP-12 inhibitors” (Shionogi & Co. Ltd., priority 2000, dated 2005)

Experiments:
MMP-8 catalytic domain = target: T1, MMP-8 catalytic domain (Homo sapiens, UniProt P22894); test: Assay for inhibitory activities on MMPs (fluorogenic peptide substrate): MMP-8; format: biochemical; conditions: substrate MOCAc-Pro-Leu-Gly-Leu-A2Pr(DNP)-Ala-Arg-NH2
T1 construct: catalytic domain (^99Phe˜^262Gly); His-tag; enterokinase digestion-site; made in house; host or cells: Escherichia coli
Description: In regard to MMP-8, catalytic domain (^99Phe˜^262Gly) was amplified with PCR using commercial available Human Bone Marrow cDNA. This was cloned in Escherichia. coli expression vector pTrc99AHE inserted with His-tag sequence and enterokinase digestion-site, induced and expressed by IPTG (Isopropyl-β-D-thiogalactopyranoside) and expressed in a insoluble fraction (Than F. Ho, M. Walid Qoronfleh, Robert C. Wahl, Trica A. Pulvino, Karen J. Vavra, Joe Falvo, Tracey M. Banks, Patricia G. Brake and Richard B. Ciccarelli: Gene expression, purification and characterization of recombinant human neutrophil collagenase. Gene 146, (1994) 297-301, Prepared by the a improved method of this material). Isolation of MMP-8 from insoluble fraction was carried out by dissolving in modifier (6M urea) by a usual method and purification with metal chelate chromatography. And then removing modifier (6M urea) with dialysis and refolding of the enzyme spontaneously gave activated MMP-8.
(§1) The enzymatic activity on MMPs was analyzed by the method described in “C. Graham Knight, Frances Willenbrock and Gillian Murphy: A novel coumarin-labelled peptide for sensitive continuous assays of the matrix metalloproteinases: FEBS LETT., 296, (1992), 263-266”. The substrate: MOCAc-Pro-Leu-Gly-Leu-A2Pr(DNP)-Ala-Arg-NH2 was purchased from Peptide Institute, Inc., Osaka, Japan. The measurement of the inhibitory activities (IC50) was carried out by the following four methods;
(§2) (A) Reaction with substrate, enzyme (MMPs) and inhibitor
(§3) (B) Reaction with substrate and inhibitor, without enzyme
(§4) (C) Reaction with substrate and enzyme (MMPs), without inhibitor
(§5) (D) Reaction with substrate only
(§6) IC50 values were calculated by using the following formula and each fluorescence values of above four methods (A to D).
(§7) % inhibition={1−(A−B)/(C−D)}×100
(§8) IC50 means the concentration required to inhibit 50% of the enzyme activity.

MMP-9 = target: T2, MMP-9 (Homo sapiens, UniProt P14780); test: Assay for inhibitory activities on MMPs (fluorogenic peptide substrate): MMP-9; format: biochemical; conditions: substrate MOCAc-Pro-Leu-Gly-Leu-A2Pr(DNP)-Ala-Arg-NH2
T2 construct: endogenous in cells; host or cells: HT1080 human fibrosarcoma cells, TPA-stimulated; purified in house from conditioned medium
Description: MMP-9 was isolated and purified by using a combination of procedures described in previous reports as follows. Yasunori Okada, Yukio Gonoji, Katsumi Naka, Katsuro Tomita, Isao Nakanishi, Kazushi Iwata, Kyoko Yamashita, and Taro Hayakawa: Matrix metalloproteinase 9 (92-kDa gelatinase/type IV collagenase) from HT1080 human fibrosarcoma cells. Purification and activation of the precursor and enzymic properties. J. Biol. Chem., 267 (1.992) 21712-21719. Yasunori Okada, Tatsuhisa Morodomi, Jan J, Enghild, Ko Suzuki, Atsushi Yasui, Isao Nakanishi, Guy Salvesen and Hideaki Nagase: Matrix metalloproteinase 2 from human rheumatoid synovial fibroblasts. Purification and activation of the precursor and enzymic properties. Eur. J. Biochem. 194 (1990) 721-730. Robin V Ward, Rosalind M Hembry, John J Reynolds and Gillian Murphy: The purification of tissue inhibitor of metalloproteinase-2 from its 72 kDa progelatinase complex. Biochem. J. 278 (1991) 179-187.
Briefly, human fibrosarcoma ATCC HT1080 cell line was cultured to confluent in Dulbecco's Modified Medium (DMEM) containing 10% fetal-calf serum at 37° C. for 48 hours. Subsequently, the medium of confluent culture was changed to serum-free DMEM medium. To obtain MMP-9, Phorbol-12-myristate-13-acetate (TPA) must be added to this serum-free DMEM medium at a concentration of 50 ng/ml. The TPA treated medium was centrifuged at 3000 rpm for 15 min and the supernatant was concentrated to 450 ml by a Toyo-Roshi UP-20 apparatus with an ultrafiltration membrane. Then, proMMP-9 in this concentrated solution was purified by using columns of Gelatin-Sepharose and Concanavalin A-Sepharose. The pool containing proMMP-9 was dialyzed, concentrated (Toyo-Roshi UP-20) and applied to columns of Sephacryl S-200 and Green A matrix for the separation from TIMPs. The obtained proMMP-9 fraction was activated by TPCK-Trypsin (final conc. […] reaction mix.).
as §1, §2, §3, §4, §5, §6, §7, §8

T2 sequence (P14780 107-707 limits assumed): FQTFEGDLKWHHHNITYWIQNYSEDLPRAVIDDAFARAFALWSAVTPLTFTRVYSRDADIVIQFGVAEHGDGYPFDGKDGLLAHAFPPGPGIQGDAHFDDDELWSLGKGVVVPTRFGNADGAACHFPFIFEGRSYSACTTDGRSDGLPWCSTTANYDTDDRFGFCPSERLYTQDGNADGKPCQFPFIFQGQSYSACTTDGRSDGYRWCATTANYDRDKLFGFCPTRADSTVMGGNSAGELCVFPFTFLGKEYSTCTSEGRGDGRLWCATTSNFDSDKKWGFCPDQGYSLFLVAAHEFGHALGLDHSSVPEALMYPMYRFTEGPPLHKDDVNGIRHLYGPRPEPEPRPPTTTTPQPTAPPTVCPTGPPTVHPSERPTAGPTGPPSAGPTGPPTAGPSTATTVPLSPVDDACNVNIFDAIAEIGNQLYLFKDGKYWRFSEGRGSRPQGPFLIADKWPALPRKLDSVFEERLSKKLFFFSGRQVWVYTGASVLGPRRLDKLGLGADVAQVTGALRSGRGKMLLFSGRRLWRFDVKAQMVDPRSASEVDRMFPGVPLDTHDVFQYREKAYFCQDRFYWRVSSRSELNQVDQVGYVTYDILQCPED
T1 sequence (P22894 99-262): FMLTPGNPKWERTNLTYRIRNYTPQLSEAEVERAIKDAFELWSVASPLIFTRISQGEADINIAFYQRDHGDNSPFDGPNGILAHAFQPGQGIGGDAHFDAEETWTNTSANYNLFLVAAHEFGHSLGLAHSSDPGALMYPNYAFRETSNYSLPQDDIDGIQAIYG

## C[C@@H](NS(=O)(=O)c1ccc(C#Cc2ccc3ccccc3c2)s1)C(=O)O [Compound B-6]
MMP-8 catalytic domain
  IC50: 2090 nM
MMP-9
  IC50: 840 nM
